According to patent US8394596B1 (priority 2012, dated 2013):
Like-named read-outs stand apart in the source and are kept apart here.

Columns and labels:
Type in all cases: binding
[1] = tested on: rabbit anti-BMAA antibody
[2] = tested on: rabbit anti-BMAA antibody; experiment: Competitive ELISA for BMAA on anti-rabbit IgG coated plates, estimate of sensitivity (Example 6); conditions: antibody harvested after fourth booster
Procedure: Rabbits were immunized with 0.5-1.0 mg of immunizing conjugate per rabbit per injection. The immunizing conjugate was emulsified with Complete Freund's Adjuvant for primary injections and with Incomplete Freund's Adjuvant for booster injections. Three or four booster injections were performed at monthly intervals to raise the desired titers. The rabbits were bled on 12±3 days following each booster injection. Antisera were monitored for titer and analyte specificity by capturing the relevant antibodies on ELISA plates coated with anti-rabbit IgG. The captured antibodies were measured in a subsequent step by incubating the plates with a BMAA-horseradish peroxidase (BMAA-HRP).
Three rabbits were immunized with an immunogen in which EDC was used to link BMAA to BSA according to Example 1. Three rabbits were immunized with an immunogen in which DSS was used to link BMAA to BSA according to Example 2. The rabbit with the highest antibody titer when tested with sera collected 14 days after the fourth booster was a rabbit that had been immunized with an immunogen in which DSS was used to link BMAA to BSA according to Example 2. Antibodies from that rabbit, harvested 14 days after the fourth booster were used to generate the data obtained from Example 6 below. Antibodies from that rabbit, harvested 14 days after the fourth booster were used to generate the data obtained from Example 8 below.
(§1) The ELISA method: • 1. Add either 100 μL of either a BMAA solution (0, 10, 25, 50, 100, 250, 500, 1000 ng/mL of BMAA) as a calibrator/standard solutions or 100 μL of a test sample into the wells of the test strips (coated with anti-rabbit IgG). Analysis in duplicate or triplicate is recommended. • 2. Add 50 μL of enzyme conjugate solution (BMAA-HRP) to the individual wells successively using a multi-channel pipette or a stepping pipette. • 3. Add 50 μL of antibody solution (rabbit anti-BMAA; for example one made by diluting by a factor of 8000 antiserum from a rabbit immunized according to Example 3 using BMAA-BSA as the immunogen) to the individual wells successively using a multi-channel pipette or a stepping pipette. Cover the wells with parafilm or tape and mix the contents by moving the strip holder in a circular motion on the benchtop for 30 seconds. Be careful not to spill the contents. The foregoing creates a total assay volume of 200 μL. • 4. Incubate the strips for 90 minutes at room temperature. • 5. Remove the covering and decant the contents of the wells into a sink. Wash the strips four times using the diluted washing buffer solution (1×PBS with 0.1% Tween), using at least a volume of 250 μL of washing buffer for each well in each washing step. Remaining buffer in the wells should be removed by patting the inverted plate dry on a stack of paper towels. • 6. Add 150 μL of substrate (color) solution ((TMB), BioFX cat #TMBW-1000 from Surmodics), to the wells. Cover the wells with parafilm or tape and mix the contents by moving the strip holder in a circular motion on the benchtop for 30 seconds. Be careful not to spill the contents. Incubate the strips for 30 minutes at room temperature. Protect the strips from direct sunlight. • 7. Add 100 μL of stop solution (2N HCl) to the wells in the same sequence as for the substrate solution. • 8. Read the absorbance at 450 nm using a microplate ELISA photometer within 15 minutes after the addition of stopping solution using a computer interfaced ELISA reader (Molecular Devices, Sunnyvale, Calif.). BMAA concentration in the unknown samples was estimated by comparison with a concurrently-run standard curve.
The procedure of Example 5 was followed using known amounts of BMAA. (The antibody preparation was that specified in Example 3 as having been used for Example 6). “Concentration (ng/ml)” refers to the concentration of the BMAA in the 100 μL of calibrator/standard solution referred to in step (1) of Example 5. […]

[3] = tested on: rabbit anti-BMAA antibody; experiment: Competitive ELISA for BMAA, second estimate of sensitivity with later-harvested antibody (Example 8); conditions: antibody harvested after the 6th boost
Procedure: as §1
The procedure of Example 6 was followed except that (1) the BMAA concentrations tested were 5, 10, 25, 100, 250 and 500 ppb (corresponding to 5, 10, 25, 100, 250 and 500 ng/ml) and (2) an antibody preparation harvested later than that used for Example 6 was used. The antibodies harvested for this example were harvested after the 6th boost.
The sensitivity of the assay was estimated to be 2.5 ppb.

[4] = relative to BMAA 50% inhibition at 170 ng/ml, 0.2% compounds tested up to 500 ug/mL, 0.1% up to 1 mg/ml

## Cl.NCCC(N)C(=O)O (racemic) [D,L-2,4-Diaminobutyric acid hydrochloride]
[1]; [4]
  Cross-reactivity: 0.1%

## NCCCC(=O)O [γ-Aminobutyric acid]
[1]; [4]
  Cross-reactivity: 0.2%

## CNC[C@H](N)C(=O)O [BMAA, β-N-methylamino-L-alanine]
[2]; BMAA 10 ng/ml in 100 μL standard solution
  B/Bo (%): 93%
[2]; BMAA 25 ng/ml in 100 μL standard solution
  B/Bo (%): 85%
[2]; BMAA 50 ng/ml in 100 μL standard solution
  B/Bo (%): 77%
[2]; BMAA 100 ng/ml in 100 μL standard solution
  B/Bo (%): 64%
[2]; BMAA 250 ng/ml in 100 μL standard solution
  B/Bo (%): 44%
[2]; BMAA 500 ng/ml in 100 μL standard solution
  B/Bo (%): 29%
[2]; BMAA 1000 ng/ml in 100 μL standard solution
  B/Bo (%): 18%
[2]; Example 6
  sensitivity of the assay: concentration of BMAA needed to reduce B/Bo by 5 percent: 7.5 ppb
[1]; concentration in the 100 μL standard solution
  concentration of BMAA causing 50% inhibition in the assay: 170 nanograms/ml
[1]; [4]
  Cross-reactivity: 100%
[3]; BMAA 5 ng/ml
  B/Bo (%): 93%
[3]; BMAA 10 ng/ml
  B/Bo (%): 88%
[3]; BMAA 25 ng/ml
  B/Bo (%): 77%
[3]; BMAA 100 ng/ml
  B/Bo (%): 49%
[3]; BMAA 250 ng/ml
  B/Bo (%): 30%
[3]; BMAA 500 ng/ml
  B/Bo (%): 19%
[3]; Example 8
  sensitivity of the assay: concentration of BMAA needed to reduce B/Bo by 5 percent: 2.5 ppb

## N[C@@H](CC(=O)O)C(=O)O [L-Aspartic acid]
[1]
  Cross-reactivity: 0.2%

## N[C@@H](CCC(=O)O)C(=O)O [L-Glutamic acid]
[1]; [4]
  Cross-reactivity: 0.2%

## Cl.N[C@@H](CS)C(=O)O [L-Cysteine hydrochloride]
[1]; [4]
  Cross-reactivity: 0.2%
